Ki data for 19 molecules are collected here from US20020013372A1, “Pharmacophore models for the identification of the CYP2D6 inhibitory potency of selective serotonin reuptake inhibitors” (priority 2000, published 2002).

Values joined by “and” are separate entries in the source; they are usually repeats but may differ in a detail not shown here. Identical values can stand only once. Like-named read-outs stand apart in the source and are kept apart here.

For data set [1], the target named is T1, CYP2D6 (Homo sapiens, UniProt P10635). The settings on record: cited from earlier work.
T1 sequence (P10635 whole entry): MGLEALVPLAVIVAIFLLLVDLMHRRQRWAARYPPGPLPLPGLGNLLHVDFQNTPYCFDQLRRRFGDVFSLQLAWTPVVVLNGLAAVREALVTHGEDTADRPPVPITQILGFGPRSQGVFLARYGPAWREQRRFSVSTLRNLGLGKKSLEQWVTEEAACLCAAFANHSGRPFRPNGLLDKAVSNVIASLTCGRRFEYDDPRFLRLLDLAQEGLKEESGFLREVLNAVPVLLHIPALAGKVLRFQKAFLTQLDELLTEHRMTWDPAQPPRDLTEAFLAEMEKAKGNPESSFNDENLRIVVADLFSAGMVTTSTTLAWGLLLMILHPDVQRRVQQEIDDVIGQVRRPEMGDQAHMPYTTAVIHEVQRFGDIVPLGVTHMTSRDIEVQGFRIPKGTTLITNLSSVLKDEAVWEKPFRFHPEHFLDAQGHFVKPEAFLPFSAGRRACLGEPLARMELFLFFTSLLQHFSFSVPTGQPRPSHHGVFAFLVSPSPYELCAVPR
For data set [2], the target named is T1, CYP2D6. Description: In vitro inhibition of CYP2D6, observed Ki (apparent) values from the literature. The text has this:
Many SSRI's are known to be inhibitors of cytochrome P450 (CYP), including CYP2D6 mediated metabolic pathways in vivo and in vitro (Belpair et al., Eur. J Clin. Pharmacol., 54: 261-264, 1998; Crewe et al., Br. J. Clin. Pharmacol., 34: 262-265, 1992; Otton et al, Clin. Pharmacol. Ther., 53: 401-409, 1993; Skjelbo et al., Br. J. Clin. Pharmacol., 34: 256-261, 1992; Stevens et al., J. Pharmacol. Exp. Ther., 266: 964-971, 1993). […] As CYP2D6 is of major concern because of its polymorphic nature (Brosen, Ther. Drug Monitoring, 18: 393-396, 1996), the ability to predict whether a drug will interact with this CYP represents a serious advance in the pharmaceutical arts. The potential for CYP2D6 inhibition in vivo can be predicted reliably using systems such as human liver microsomes and recombinant enzymes, along with a know substrate probe for CYP2D6. By generating a K1 (apparent) value and knowledge of the plasma concentration of the drug, it is possible to reliably predict the likelihood of drug-drug interactions in vivo (Ring et al., J. Pharmacol. Exp. Ther., 275: 1131-1135, 1995).
Present technologies have centered around the use of in vitro testing using human liver microsomes or recombinant CYPs and a known catalytic probe for CYP2D6 such as bufuralol. However, the possible volume of in vitro studies is often limited by equipment and materials cost, incubation volume and the rate of analytical determination. […] Generating this in vitro parameter appears to be dependent on the substrate probe used as well as other experimental variables.

Where [3] appears, read: read-out: observed K1 (apparent), training set of 14 amphetamine compounds, Wu et al., Biochem. Pharmacol. 53: 1605-1612 (1997).
[4] abbreviates: read-out: Observed K1 (apparent), individual literature values, source per footnote b-l of Table I.

Regarding (+)-methamphetamine, the Ki at CYP2D6 [1] (setting [3]) is 25 µM.
Regarding `COc1cc(OC)c(CC(C)N)c(OC)c1` (stereo not drawn) [(d,l)-2,4,6-trimethoxyamphetamine], the Ki at CYP2D6 [1] (setting [3]) was 33 µM.
Consider `CNCCCC1(c2ccc(F)cc2)OCc2cc(C#N)ccc21` (stereo not drawn) [Desmethylcitalopram], for which the Ki was 1.3 µM and 6 µM on CYP2D6 [1] (setting [4]); 3.65 µM at CYP2D6 [2].
Turning to `CN(C)CCCC1(c2ccc(F)cc2)OCc2cc(C#N)ccc21` (stereo not drawn) [Citalopram], the Ki is 5.1 µM and 19 µM and 7 µM at CYP2D6 [1] (setting [4]); 10.4 µM at CYP2D6 [2].
As to `CC(N)Cc1ccc(O)cc1` (single isomer, unassigned; (+)) [(+)-4-hydroxyamphetamine], the Ki at CYP2D6 [1] (setting [3]) was 195 µM.
Consider `NCCC(Oc1ccc(C(F)(F)F)cc1)c1ccccc1` (stereo not drawn) [Norfluoxetine], for which the Ki at CYP2D6 [2] was found to be 1.07 µM.
As to `CC(N)Cc1ccc2c(c1)OCO2` (stereo not drawn) [(d,l)-3,4-methylenedioxyamphetamine], the Ki at CYP2D6 [1] (setting [3]) is 1.8 µM.
As to `CNC(C)Cc1ccc(O)cc1` (stereo not drawn) [(d,l)-4-hydroxymethamphetamine], the Ki at CYP2D6 [1] (setting [3]) was 60 µM.
Turning to `C[C@H](N)C(=O)c1ccccc1` [(d,l)-cathinone], the Ki at CYP2D6 [1] (setting [3]) was 340 µM.
Regarding `CN[C@H]1CC[C@@H](c2ccc(Cl)c(Cl)c2)c2ccccc21` [Sertraline], on CYP2D6 [2], the Ki came to 6.52 µM.
For `COc1cc2c(cc1CC(C)N)OCO2` (stereo not drawn) [(d,l)-2-methoxy-4,5-methylenedioxyamphetamine], the Ki on CYP2D6 [1] (setting [3]) was 0.17 µM.
Take `N[C@H]1CC[C@@H](c2ccc(Cl)c(Cl)c2)c2ccccc21` [Desmethylsertraline]: the Ki on CYP2D6 [1] (setting [4]) was 16 µM.
Turning to `CC(N)Cc1ccccc1` (single isomer, unassigned; (+)) [(+)-amphetamine], the Ki on CYP2D6 [1] (setting [3]) was 26.5 µM.
Consider `COc1cccc(CC(C)N)c1` (stereo not drawn) [(d,l)-3-methoxyamphetamine], for which, on CYP2D6 [1] (setting [3]), the Ki is 17.5 µM.
`CNC(C)Cc1ccc2c(c1)OCO2` (stereo not drawn) [(d,l)-3,4-methylenedioxymethamphetamine]: the Ki at CYP2D6 [1] (setting [3]) is 0.6 µM.
As for `COc1cc(CC(C)N)cc(OC)c1OC` (stereo not drawn) [(d,l)-3,4,5-trimethoxyamphetamine], at CYP2D6 [1] (setting [3]), the Ki was 128 µM.
`COc1ccccc1CC(C)N` (stereo not drawn) [(d,l)-2-methoxyamphetamine]: the Ki at CYP2D6 [1] (setting [3]) was 11.5 µM.
In the case of `COc1ccc(CC(C)N)cc1` (stereo not drawn) [(d,l)-4-methoxyamphetamine], the Ki at CYP2D6 [1] (setting [3]) was 24 µM.
For `COc1cc(CC(C)N)cc2c1OCO2` (stereo not drawn) [(d,l)-3-methoxy-4,5-methylenedioxyamphetamine], at CYP2D6 [1] (setting [3]), the Ki was 2.2 µM.
